# From publication PMC6680932, “Structure–Antioxidant–Antiproliferative Activity Relationships of Natural C7 and C7–C8 Hydroxylated Flavones and Flavanones” (Antioxidants, 2019)
# Assays:
# [1] = Stability of flavonoids in culture media without cells (control), HPLC; format: physicochemical; details: HLMEC and MCF7 culture media not containing cells, 3 h
# Protocol: (§1) Flavonoids dissolved (as described in Section 2.4) were added to the HLMEC and MCF7 line cultures, and the final concentration was 100 μg/mL. The cultures were incubated in 96-well plates for 3 h and transferred to microtubes containing 400 µL of cold methanol (−20 °C) and kept at −20 °C for 1 h. After centrifugation at 12,000× g for 10 min, samples were analyzed by HPLC. To determine the stability of flavonoids in HLMEC and MCF7 culture media (not containing cells) under analogous conditions, control experiments were also carried out.
# [2] = tested on: MV-4-11 (biphenotypic B myelomonocytic leukemia); assay: Antiproliferative activity in vitro, MTT assay; format: cell-based, human; details: Homo sapiens, MV4-11, 72 h exposure, read-out: IC50 ± SD MV-4-11
# HLMEC cultures = assay: Stability of flavonoids in the cell cultures, HPLC; format: in vitro ADME, human; details: 100 μg/mL, 3 h of incubation
# Protocol: as §1
# MCF7 cultures = assay: Stability of flavonoids in the cell cultures, HPLC; format: in vitro ADME, human; details: 100 μg/mL, 3 h of incubation
# Protocol: as §1
# DU 145 (prostate cancer) = assay: Antiproliferative activity in vitro, SRB assay; format: cell-based, human; details: Homo sapiens, DU-145; 72 h exposure, SRB; read-out: IC50 ± SD DU 145
# LoVo (colon cancer) = assay: Antiproliferative activity in vitro, SRB assay; format: cell-based, human; details: Homo sapiens, LoVo, 72 h, 72 h exposure, SRB; read-out: IC50 ± SD LoVo
# Protocol: (§2) The antiproliferative studies were performed in vitro using human cancer cell lines—MV-4-11 (biphenotypic B myelomonocytic leukemia), MCF7 (breast carcinoma), LoVo (colon cancer), LoVo/DX (colon cancer doxorubicin-resistant), and DU 145 (prostate cancer)—and normal human cell lines—MCF 10A (breast cells) and HLMEC (lung microvascular endothelial cells). The cell lines MV-4-11, LoVo, DU 145, and MCF 10A were obtained from the American Type Culture Collection (Rockville, Maryland, USA), MCF7 from the European Collection of Authenticated Cell Cultures (ECACC, Salisbury, UK), LoVo/DX courtesy of Professor E. Borowski (Technical University of Gdansk, Poland), and HLMECs (which had been already immortalized by transfection with pSV3-neoplasmid containing large T-antigen gene) were the kind gift of Professor Claudine Kieda (Center for Molecular Biophysics, Orleans, France). The cell lines are being maintained in the Hirszfeld Institute of Immunology and Experimental Therapy, Polish Academy of Sciences (HIIET, PAS), Wroclaw, Poland. All cell lines were grown at 37 °C with 5% CO2 humidified atmosphere. The MV-4-11 cells were cultured in RPMI 1640 medium with GlutaMAX (Gibco, Scotland, UK), supplemented with 1 mM sodium pyruvate and 10% fetal bovine serum (both from Sigma-Aldrich, Poznan, Poland). The MCF7 cells were cultured in Eagle medium (HIIET, PAS, Wroclaw, Poland) supplemented with 2 mM L-glutamine, 10% fetal bovine serum, 1% nonessential amino acid solution, and 0.8 mg/L of insulin (all from Sigma-Aldrich, Poznan, Poland). The LoVo and LoVo/DX cells were cultured in a 1:1 (v/v) mixture of RPMI 1640 and Opti-MEM (both HIIET, PAS, Wroclaw, Poland), supplemented with 1 mM sodium pyruvate, 2 mM L-glutamine, and 5% fetal bovine serum (all from Sigma-Aldrich, Poznan, Poland). For LoVo/DX cells, additionally 10 µg/100 mL of doxorubicin (Accord Healthcare) was added to the medium. DU 145 cells were cultured in Eagle medium (HIIET, PAS, Wroclaw, Poland) supplemented with 1 mM sodium pyruvate, 4 mM L-glutamine, and 10% fetal bovine serum (all from Sigma-Aldrich, Poznan, Poland). The MCF 10A cells were cultured in the F-12 nutrient mixture (Gibco, Scotland, UK), supplemented with 5% horse serum (Gibco, Scotland, UK), 0.05 μg/mL of cholera toxin (Vibrio cholerae), 0.5 μg/mL of hydrocortisone, 10 μg/mL of insulin, and 20 ng/mL of human epidermal growth factor (all from Sigma-Aldrich, Poznan, Poland). The HLMEC cells were cultured in the RPMI 1640 medium (HIIET, PAS, Wroclaw, Poland) with the addition of 2 mM L-glutamine (Sigma-Aldrich, Poznan, Poland) and 10% fetal bovine serum (GE Healthcare). All culture media were supplemented with 100 units/mL penicillin (Polfa Tarchomin S.A., Warsaw, Poland) and 100 µg/mL streptomycin (Sigma-Aldrich, Poznan, Poland). Twenty-four hours before addition of the tested agents, the cells were plated in 96-well plates (Sarstedt, Germany) at a density of 1 × 10^4 (1 × 10^3 for HLMEC and 0.75 × 10^4 for MCF7) cells per well in 100 μL of culture medium.
# (§3) Tested compounds were dissolved in DMSO and then diluted in a 1:1 (v/v) mixture of RPMI 1640 (HIIET, PAS, Wroclaw, Poland) and Opti-MEM (Gibco, Scotland, UK) medium supplemented with 2 mM L-glutamine (Sigma-Aldrich, Poznan, Poland), 5% fetal bovine serum (GE Healthcare), 100 units/mL penicillin (Polfa Tarchomin S.A., Warsaw, Poland), and 100 µg/mL streptomycin (Sigma-Aldrich, Poznan, Poland). The antiproliferative effects of the flavonoids were examined after 72 h of exposure of the cultured cells to varying concentrations of the tested agents (from 0.1 to 100 μg/mL) using the MTT (for MV-4-11 cells) or SRB assay described below. Cisplatin (chemotherapy drug used to treat a number of cancers) was used as a positive control. The results are presented as an inhibitory concentration 50 (IC50), which is the concentration of the tested agent that inhibits proliferation of the cell population by 50%. IC50 values for each experiment were calculated separately. […]
# [3] = tested on: HLMEC (lung microvascular endothelial cells); assay: Antiproliferative activity in vitro, SRB assay; format: cell-based, human; details: Homo sapiens, Endothelial cell; 72 h exposure, SRB; normal cell line; read-out: IC50 ± SD HLMEC
# Protocol: as §2, §3
# MCF 10A (breast cells) = assay: Antiproliferative activity in vitro, SRB assay; format: cell-based, human; details: Homo sapiens, MCF-10A; 72 h exposure, SRB; normal cell line; read-out: IC50 ± SD MCF 10A
# Protocol: as §2, §3
# MCF7 (breast carcinoma) = assay: Antiproliferative activity in vitro, SRB assay; format: cell-based, human; details: Homo sapiens, MCF7; 72 h exposure, SRB; read-out: IC50 ± SD MCF7
# Protocol: as §2, §3
# [4] = tested on: LoVo/DX (colon cancer doxorubicin-resistant); assay: Antiproliferative activity in vitro, SRB assay; format: cell-based, human; details: Homo sapiens, LoVo/DX, 72 h exposure, read-out: IC50 ± SD LoVo/DX
compound remaining in culture media without cells [1],IC50 [2] [µM],compound remaining after incubation in HLMEC cultures (HLMEC cultures),compound remaining after incubation in MCF7 cultures (MCF7 cultures),IC50 (DU 145 (prostate cancer)) [µM],IC50 (LoVo (colon cancer)) [µM],IC50 (MCF7 (breast carcinoma)) [µM],IC50 [4] [µM],SMILES,IC50 [3] [µM],IC50 (MCF 10A (breast cells)) [µM]
over 98%,146 ± 19.1,over 98%,over 98%,242 ± 15.6,121 ± 4.3,215 ± 32.3,129 ± 9.74,"O=C1C[C@@H](c2ccc(O)cc2)Oc2cc(O)cc(O)c21 [Compound 6, naringenin]",114 ± 18.6,185 ± 23.2
–,–,–,–,–,235 ± 57.1,–,–,"O=c1cc(-c2ccc(O)cc2)oc2c(O)c(O)cc(O)c12 [Compound 10, 8-hydroxyapigenin]",122 ± 14.4,–
over 98%,8.18 ± 2.76,over 98%,over 98%,28.9 ± 8.4,13.8 ± 1.38,22.5 ± 1.29,11.6 ± 1.35,"O=c1cc(-c2ccc(O)cc2)oc2cc(O)cc(O)c12 [Compound 2, apigenin]",14.1 ± 0.91,35.7 ± 11.9
